# Target: T1, TDO2 (Homo sapiens, UniProt P48775)
# T1 construct: decreased levels of NFK in SW48 cells (high TDO expressing cells)
# Experiment: TDO2 cell assay (NFK GreenScreen, SW48 cells)
# Type: cell-based
# Details: SW48 cells (high TDO expressing), 200 uM tryptophan, 24 hours; Table 3; read-out: TDO2 Cell Fluor EC50
# T1 sequence (P48775 whole entry): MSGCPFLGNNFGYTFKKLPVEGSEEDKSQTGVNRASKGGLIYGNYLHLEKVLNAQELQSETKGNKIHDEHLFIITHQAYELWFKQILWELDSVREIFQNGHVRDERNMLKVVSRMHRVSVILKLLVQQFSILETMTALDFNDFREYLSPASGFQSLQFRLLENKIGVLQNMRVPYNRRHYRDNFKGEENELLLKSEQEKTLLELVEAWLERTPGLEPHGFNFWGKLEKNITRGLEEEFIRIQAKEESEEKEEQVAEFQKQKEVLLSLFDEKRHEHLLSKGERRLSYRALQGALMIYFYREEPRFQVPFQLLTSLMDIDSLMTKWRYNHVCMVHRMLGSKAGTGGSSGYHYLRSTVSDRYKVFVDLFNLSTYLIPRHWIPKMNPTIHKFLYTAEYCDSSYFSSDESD
row,Structure (SMILES),EC50 [µM]
1,"O=S(=O)(C1CC1)N1CCC(C2c3ccccc3-c3cncn32)C(O)C1 (mixture of isomers) [Example 77b, (3S,4SR)-1-(cyclopropylsulfonyl)-4-((S)-5H-imidazo[5,1-a]isoindol-5-yl)piperidin-3-ol]",0.086
2,"OC1(C2c3ccccc3-c3cncn32)CCOCC1 (racemic) [Example 43, 4-(5H-imidazo[5,1-a]isoindol-5-yl)tetrahydro-2H-pyran-4-ol]",2.86
3,"CC(C)(O)C1c2ccccc2-c2cncn21 (racemic) [Example 44, 2-(5H-imidazo[5,1-a]isoindol-5-yl)propan-2-ol]",6.84
4,"OC1(C2c3ccccc3-c3cncn32)COC1 (racemic) [Example 48, 3-(5H-imidazo[5,1-a]isoindol-5-yl)oxetan-3-ol]",7.26
5,"OC1(C2c3ccccc3-c3cncn32)CCC(F)(F)CC1 (racemic) [Example 53, 4,4-difluoro-1-(5H-imidazo[5,1-a]isoindol-5-yl)cyclohexan-1-ol]",0.17
6,"OC1(C2c3ccccc3-c3cncn32)CC(CF)(CF)C1 (racemic) [Example 54, 3,3-bis(fluoromethyl)-1-(5H-imidazo[5,1-a]isoindol-5-yl)cyclobutan-1-ol]",3.4
7,"OC1(C2c3ccccc3-c3cncn32)CCCC1 (racemic) [Example 55, 1-(5H-imidazo[5,1-a]isoindol-5-yl)cyclopentan-1-ol]",1.6
8,"O=S1(=O)CC(C2c3ccccc3-c3cncn32)C(O)c2ccccc21 (racemic) [Example 96a, 4-hydroxy-3-(5H-imidazo[5,1-a]isoindol-5-yl)thiochromane 1,1-dioxide]",0.89
9,"C[C@@](O)(C1CCOCC1)[C@@H]1c2ccccc2-c2cncn21 (racemic) [Example 131a, Mixture of(S)-1-((R)-5H-imidazo[5,1-a]isoindol-5-yl)-1-(tetrahydro-2H-pyran-4-yl)ethan-1-ol and (R)-1-((S)-5H-imidazo[5,1-a]isoindol-5-yl)-1-(tetrahydro-2H-pyran-4-yl)ethan-1-ol]",19
10,"CC1(C)CC(O)(C2c3ccccc3-c3cncn32)C1 (racemic) [Example 147a, 1-(5H-imidazo[5,1-a]isoindol-5-yl)-3,3-dimethylcyclobutan-1-ol]",0.81
11,"O[C@@H]1CC[C@H]1[C@@H]1c2ccccc2-c2cncn21 (single isomer, unassigned) [Example 01f]",> 25
12,"OC1CCC1C1c2ccccc2-c2cncn21 (single isomer, unassigned) [Example 01g]",3.3
13,"OC1CCC1C1c2ccccc2-c2cncn21 (single isomer, unassigned) [Example 01h]",16
14,"OC1CCCC1C1c2ccccc2-c2cncn21 (single isomer, unassigned) [Example 02e]",17
15,"OC1CCCC1C1c2ccccc2-c2cncn21 (single isomer, unassigned) [Example 02f]",0.07
16,"OC1CCCC1C1c2ccccc2-c2cncn21 (single isomer, unassigned) [Example 02g]",0.34
17,"OC1CCCC1C1c2ccccc2-c2cncn21 (single isomer, unassigned) [Example 02h]",> 25
18,"OC1CCCCC1C1c2ccccc2-c2cncn21 (single isomer, unassigned) [Example 03c]",> 25
19,"OC1CCCCC1C1c2ccccc2-c2cncn21 (single isomer, unassigned) [Example 03d]",0.036

row,Structure (SMILES),EC50 [µM]
1,"OC1CCCCC1C1c2ccccc2-c2cncn21 (single isomer, unassigned) [Example 03e]",16
2,"OC1CCCCC1C1c2ccccc2-c2cncn21 (single isomer, unassigned) [Example 03f]",0.3
3,"OC1c2cnccc2CCC1C1c2ccccc2-c2cncn21 (single isomer, unassigned) [Example 04a]",1.3
4,"OC1c2cnccc2CCC1C1c2ccccc2-c2cncn21 (single isomer, unassigned) [Example 04b]",> 25
5,"OC1c2cnccc2CCC1C1c2ccccc2-c2cncn21 (single isomer, unassigned) [Example 04c]",1
6,"O[C@@H]1c2cnccc2CC[C@@H]1[C@H]1c2ccccc2-c2cncn21 (single isomer, unassigned) [Example 04d]",20
7,"O[C@H]1c2cnccc2CC[C@@H]1[C@@H]1c2ccccc2-c2cncn21 (single isomer, unassigned) [Example 04f]",2.3
8,"O[C@H]1c2cnccc2CC[C@@H]1[C@@H]1c2ccccc2-c2cncn21 (single isomer, unassigned) [Example 04g]",19
9,"O[C@@H]1c2cnccc2CC[C@H]1[C@H]1c2ccccc2-c2cncn21 (single isomer, unassigned) [Example 04h]",0.13
10,"OC1COCCC1C1c2ccccc2-c2cncn21 (single isomer, unassigned) [Example 06g]",0.56
11,"OC1COCCC1C1c2ccccc2-c2cncn21 (single isomer, unassigned) [Example 06h]",> 25
12,"OC1c2cncn2CCC1C1c2ccccc2-c2cncn21 (single isomer, unassigned) [Example 07a]",15
13,"OC1c2cncn2CCC1C1c2ccccc2-c2cncn21 (single isomer, unassigned) [Example 07b]",> 25
14,"OC1c2cncn2CCC1C1c2ccccc2-c2cncn21 (single isomer, unassigned) [Example 07e]",2.2
15,"OC1c2cncn2CCC1C1c2ccccc2-c2cncn21 (single isomer, unassigned) [Example 07f]",> 25
16,"O[C@H]1c2ccncc2CC[C@@H]1[C@@H]1c2ccccc2-c2cncn21 (single isomer, unassigned) [Example 08b]",0.6
17,"O[C@H]1c2ccncc2CC[C@H]1[C@@H]1c2ccccc2-c2cncn21 (single isomer, unassigned) [Example 08c]",5.2
18,"O[C@@H]1c2ccncc2CC[C@@H]1[C@H]1c2ccccc2-c2cncn21 (single isomer, unassigned) [Example 08d]",0.51
19,"O[C@H]1c2ccncc2CC[C@@H]1[C@H]1c2ccccc2-c2cncn21 (single isomer, unassigned) [Example 08e]",0.23

row,Structure (SMILES),EC50 [µM]
1,"O[C@@H]1c2ccncc2CC[C@H]1[C@@H]1c2ccccc2-c2cncn21 (single isomer, unassigned) [Example 08f]",12
2,"O[C@@H]1c2ccncc2CC[C@@H]1[C@@H]1c2ccccc2-c2cncn21 (single isomer, unassigned) [Example 08g]",8.3
3,"O[C@H]1c2ccncc2CC[C@H]1[C@H]1c2ccccc2-c2cncn21 (single isomer, unassigned) [Example 08h]",0.1
4,"CC(=O)N1CCC(C2c3ccccc3-c3cncn32)C(O)C1 (single isomer, unassigned) [Example 09a, 1-(3-hydroxy-4-(5H-imidazo[5,1-a]isoindol-5-yl)piperidin-1-yl)ethan-1-one]",> 25
5,"CC(=O)N1CCC(C2c3ccccc3-c3cncn32)C(O)C1 (single isomer, unassigned) [Example 09b, 1-(3-hydroxy-4-(5H-imidazo[5,1-a]isoindol-5-yl)piperidin-1-yl)ethan-1-one]",3
6,"CC(=O)N1CCC(C2c3ccccc3-c3cncn32)C(O)C1 (single isomer, unassigned) [Example 09c, 1-(3-hydroxy-4-(5H-imidazo[5,1-a]isoindol-5-yl)piperidin-1-yl)ethan-1-one]",> 25
7,"CC(=O)N1CCC(C2c3ccccc3-c3cncn32)C(O)C1 (single isomer, unassigned) [Example 09d, 1-(3-hydroxy-4-(5H-imidazo[5,1-a]isoindol-5-yl)piperidin-1-yl)ethan-1-one]",> 25
8,"CC(C)(C)OC(=O)N1CCC(C2c3ccccc3-c3cncn32)C(O)C1 (single isomer, unassigned) [Example 10a, tert-butyl 3-hydroxy-4-(5H-imidazo[5,1-a]isoindol-5-yl)piperidine-1-carboxylate]",2.1
9,"CC(C)(C)OC(=O)N1CCC(C2c3ccccc3-c3cncn32)C(O)C1 (single isomer, unassigned) [Example 10b, tert-butyl 3-hydroxy-4-(5H-imidazo[5,1-a]isoindol-5-yl)piperidine-1-carboxylate]",> 25
10,"CC(C)(C)OC(=O)N1CCC(C2c3ccccc3-c3cncn32)C(O)C1 (single isomer, unassigned) [Example 10c, tert-butyl 3-hydroxy-4-(5H-imidazo[5,1-a]isoindol-5-yl)piperidine-1-carboxylate]",19
11,"CC(C)(C)OC(=O)N1CCC(C2c3ccccc3-c3cncn32)C(O)C1 (single isomer, unassigned) [Example 10d, tert-butyl 3-hydroxy-4-(5H-imidazo[5,1-a]isoindol-5-yl)piperidine-1-carboxylate]",> 25
12,"CC(C)(C)OC(=O)N1CCC(O)C(C2c3ccccc3-c3cncn32)C1 (single isomer, unassigned) [Example 11c, tert-butyl 4-hydroxy-3-(5H-imidazo[5,1-a]isoindol-5-yl)piperidine-1-carboxylate]",> 25
13,"CC(C)(C)OC(=O)N1CCC(O)C(C2c3ccccc3-c3cncn32)C1 (single isomer, unassigned) [Example 11d, tert-butyl 4-hydroxy-3-(5H-imidazo[5,1-a]isoindol-5-yl)piperidine-1-carboxylate]",22
14,"CC(=O)N1CCC(O)C(C2c3ccccc3-c3cncn32)C1 (single isomer, unassigned) [Example 12a]",2.7
15,"CC(=O)N1CCC(O)C(C2c3ccccc3-c3cncn32)C1 (single isomer, unassigned) [Example 12b]",> 25
16,"CC(=O)N1CC[C@H](O)[C@@H]([C@H]2c3ccccc3-c3cncn32)C1 (single isomer, unassigned) [Example 12c]",> 25
17,"CC(=O)N1CC[C@@H](O)[C@H]([C@@H]2c3ccccc3-c3cncn32)C1 (single isomer, unassigned) [Example 12d]",> 25
18,"N#CCN1CCC(O)C(C2c3ccccc3-c3cncn32)C1 (single isomer, unassigned) [Example 14a]",0.36
